# Reference: US12692532B2, “Compounds and methods for amine oxidase imaging” (ETH ZURICH, priority 2019, dated 2026)
# Non-standard residues stand in square brackets, D forms with d. Residues, ends and D or L forms follow the SMILES beside them. *: point of attachment. X1 = Cc1c(CC(=O)*)c(=O)oc2c(F)c(OCCCN)c(F)cc12; X2 = Cc1c(CC(=O)*)c(=O)oc2c(F)c(O)c(F)cc12; dCha = N[C@H](CC1CCCCC1)C(=O)O; Ahx = NCCCCCC(=O)O
# Tests used:
# [1] = test system: MAO A/MAO B in MCF-7 cells; assay: Confocal microscopy of MCF-7 cells treated with MAO probes; format: cell-based; set-up: blue channel (405 nm) fluorescence of the probe / colocalization with MitoTracker Red (405 nm and 561 nm overlay): dose or concentration left out as unconfirmed
# Procedure: Cell culture: MCF-7 and SY5Y cells were obtained from the Health Protection Agency (www.HPA.org.uk) or the American Type Culture Collection. […] Culture medium DMEM high glucose, F-12KTM, L-glutamine (200 mM), penicillin (10.000 U/mL), streptomycin (10 mg/mL), and trypan blue solution were purchased from Sigma, Invitrogen, ATCC or BioConcept. Trypsin-EDTA (0.05%/0.02%) in Ca2+- and Mg2+-deficient phosphate buffered saline (PBS) (1:250) was purchased from Amimed. PBS (pH 7.4) was purchased from Invitrogen. […] Cell culture flasks as well as serological pipettes were purchased from BD Biosciences and Sarstedt. Ethylenediaminetetraacetic acid (EDTA) was purchased from Sigma-Aldrich. Hoechst 33342 was purchased from Invitrogen. MitoTracker Red mitochondrial staining dye and live cell imaging solution were purchased from ThermoFisher.
# Confocal Microscopy: Fluorescence images of cells were collected using a Nikon Eclipse T1 microscope equipped with a Yokogawa spinning-disk confocal scanner unit CSU-W1-T2, two sCMOS cameras (Orca Flash 4.0 V2) and a LUDL BioPrecision2 stage with piezo focus. Emission in the blue channel was filtered with a 450/50 bandpass filter, emission in the green channel was filtered with a 525/50 bandpass filter and emission in the far-red channel with a 700/75 bandpass filter. Fluorescence images were obtained using an oil-immersion objective with a magnification of 100×1.49 CFI Apo TIRF. The microscope was operated using VisiVIEW (Metamorph).
# Prior to the measurement, cells were seeded at a density of 10′000 cells/well in ibidi 8-well plates and were grown for 1 day in DMEM (10% FCS) at 37° C. Afterwards cells were washed with PBS and fresh DMEM was added. Compounds were added to the cells as stock solutions in PBS to reach the final […] concentration. […] Cells were washed with PBS and the live cell imaging solution (200 μL) was added. The live cells were then immediately examined on a confocal microscope (Vistron Spinning Disk). For detection of the coumarin-activation a laser line 405 nm and for MitoTracker a laser line of 561 nm was used.
# [2] = test system: LOX activity in mouse tissue homogenate; assay: Ex vivo fluorescence assay of amine oxidase (LOX) activity in mouse tissue homogenate; format: biochemical; conditions: for fluorescent signal (RFU) with skin homogenate, comparison with oLOX probe: 10 μM, 24 h at 37° C., each at its absorbance and emission maximum
# Procedure: (§1) Fluorescence experiments for determining amine oxidase activity of a given enzyme are conducted using a fluorescence plate reader and a standard 96-well black polystyrene plate with a clear flat bottom. To the plate 150 μL of the following solutions are added to individual wells, e.g. with at least three replicates: buffer (e.g. 25 mM at pH 7.5), a solution in buffer of the amine-oxidase reactive probe, e.g. Compound 2, (e.g. at 100 μM), a buffered solution of the sample containing an amine-oxidase at the desired concentration(s) (e.g. 40 μg/mL), and a buffered solution of the sample containing amine-oxidases with addition of the probe, e.g. Compound 2, (e.g. at 100 μM). The plate is incubated in the dark at 37° C. for a period of time between 15 min and 24 hours before measurements are taken. Fluorescence is measured by exciting the unmasked probe at the absorbance maximum (e.g. 360 nm) or at 405 nm, and measuring the fluorescence at the emission maximum of the probe, for example at 460 nm. Enzyme activity is observed as fluorescence measured relative to the untreated controls, for example as expressed in relative fluorescent units (RFUs). […] Any change, optionally any statistically relevant change, in fluorescence relative to the untreated controls is indicative of amine oxidase activity.
# Skin tissue used for enzymatic analysis of LOX activity was harvested (1 cm×1 cm) and placed in 2 ml of ice-cold PBS. Skin tissue was homogenized using an Ultra-TURRAX homogenizer (KA®-Werke GmbH & CO. KG, Staufen, Germany) and samples were spun at 2000×g to pellet out tissue debris. The supernatant was further purified using a 0.2 μm filter. Tissue homogenates were then evaluated with regard to total in solution protein retrieval using a nanospec absorbance measurement standardized to BSA at 1 mg/mL (Pierce™, Thermo Fisher Scientific Inc, Waltham, USA). Homogenates were diluted to appropriate concentrations (e.g. 1 mg/ml total protein) with 25 mM PIPES, 0.5% Triton X-100 (Sigma Aldrich, St Louis, […], USA) and pre-incubated with the probe (10 μM or 100 μM) at 37° C. in the dark for the designated period of time prior to fluorescence measurements. The resultant fluorescence was then measured using a Tecan Spark 10M Multi-Mode Microplate Reader (Tecan, Männedorf, Switzerland) at ambient temperature with a filter for excitation/emission (e.g. 405/460 nm respectively) as defined for the experiment. Activity is observed as fluorescence measured, and is expressed in relative fluorescent units (RFUs). Graphical presentation and statistical analysis were carried out using Graphpad Prism 7 software, (GraphPad Software, Inc., San Diego, USA.) with statistical significance determined as p<0.05.
# [3] = test system: amine-oxidase (LOX) in skin wound; assay: In vivo intradermal administration to mice, histological analysis of skin wound; conditions: for fluorescence in cross section of wound after in vivo administration: 100 μM, 50 μL intradermally, skin harvested after five days
# Procedure: Animals: Mice were housed and fed according to Swiss guidelines and all animal experiments were approved by the local veterinary authorities (Kantonales Veterinäramt Zürich). All mice used for these experiments are on a C57BL/6 background. Administration of Compounds 3, 4 and 5 into skin: Peptide solutions at 100 μM were brought to room temperature for 30 min. Male or female mice at 8 weeks of age were anesthetized by intraperitoneal injection of ketamine/xylazine (100 mg ketamine/5-10 mg xylazine per kg body weight), skin shaved and an injection of 50 μL was made intradermally into the back skin. Mice were housed for an additional five days and then skin harvested for histological analysis.
# Skin tissue used for histology was harvested and immediately embedded and frozen in tissue freezing Medium® (Leica Biosystems, Wetzlar, Germany). Tissue sections (7 μM) were fixed using ice-cold acetone for 10 min at −20° C. and stained with propidium iodide to visualize nuclei. Images were taken using a 20× objective. For immunofluorescent analysis of collagen, antibodies against collagen I (Southern Biotech, Birmingham, AL, USA; 1310-01) or collagen III (Abcam, Cambridge, UK, ab7778) were used. Fixed tissue sections were incubated with 1% bovine serum albumin (BSA) in PBS for 30 min followed by collagen I (1:400 dilution in 1% BSA) or collagen III (1:800 dilution in 1% BSA) antibodies for 60 min at room temperature. After washing (3×5 min PBS), secondary antibodies (anti-rabbit AF488 (711-547-003) or anti-goat AF488 (705-545-147), Jackson ImmunoResearch) were incubated on the tissues for 30 min at room temperature (both at 1:400 dilution in 1% BSA) and nuclei visualized using propidium iodide. All images were taken using a 20× objective.
# [4] = Absorption and emission spectroscopy, quantum yield; format: physicochemical; conditions: excitation wavelength used for the emission scans of FIG. 2
# Procedure: Absorption and emission spectroscopy. UV-visible spectra were obtained with a Cary-500 Scan spectrophotometer. The spectra were measured in quartz cuvettes (ThorLabs, CV10Q3500, Newton, NJ USA). Samples were irradiated with an LED transilluminator (Roithner Lasertechnik, LED405-06V, Vienna, Austria) emitting at a wavelength as stated with an incident intensity of ca. 2 mW cm^−2, measured with a power-meter (ThorLabs, PM100D, Newton, NJ USA) equipped with a Si photodiode detector (ThorLabs, S120VC, Newton, NJ USA). Fluorescence spectroscopy was measured in a Fluorolog 3 fluorimeter (Horiba Jobin-Yvon, Germany) fluorimeter with a cuvette sample changer for quartz cuvettes (ThorLabs, CV10Q3500F-E, Newton, NJ USA). All measurements were conducted at 25° C. in 50 mM PBS pH 7.4 buffer solution under red light for ambient illumination to avoid photoactivation.
# [5] = biological target: T1, recombinant human monoamine oxidase B (MAO-B) (Homo sapiens, UniProt P27338); assay: Fluorescence assay with recombinant monoamine oxidase B; format: biochemical; conditions: 100 μM, 2 h at 37° C., Ex/Em 405/460 nm
# T1 sequence (P27338 1-520): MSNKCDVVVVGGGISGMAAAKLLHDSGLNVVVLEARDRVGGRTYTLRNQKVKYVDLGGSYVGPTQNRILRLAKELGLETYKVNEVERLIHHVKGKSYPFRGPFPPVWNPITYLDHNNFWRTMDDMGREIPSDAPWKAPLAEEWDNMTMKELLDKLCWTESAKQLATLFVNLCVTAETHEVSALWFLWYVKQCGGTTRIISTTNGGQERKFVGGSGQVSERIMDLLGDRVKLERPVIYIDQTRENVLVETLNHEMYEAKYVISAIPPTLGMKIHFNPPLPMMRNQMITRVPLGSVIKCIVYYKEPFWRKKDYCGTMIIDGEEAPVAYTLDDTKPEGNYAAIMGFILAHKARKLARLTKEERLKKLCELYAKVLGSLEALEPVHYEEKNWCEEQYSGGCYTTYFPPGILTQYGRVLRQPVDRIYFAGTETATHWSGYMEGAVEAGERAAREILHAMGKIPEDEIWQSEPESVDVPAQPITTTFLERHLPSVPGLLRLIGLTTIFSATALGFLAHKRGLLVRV
# Procedure: as §1
# [6] = test system: SSC13 ear tumor; assay: Staining of SSC13 ear tumor tissue sections; conditions: 100 μM in PBS, 4 hours at 37° C.
# Procedure: Skin tissue used for histology was harvested and immediately embedded and frozen in tissue freezing Medium® (Leica Biosystems, Wetzlar, Germany). Tissue sections (7 uM) were treated by the addition of 50 μL of each compound at 100 μM in PBS (Compounds 3, 4, 5, or 6) by pipette to completely cover the surface of the section, incubated at 37° C. for 4 hours in the dark, and washed 2× with PBS. Sections were fixed using ice-cold acetone for 10 min at −20° C. and stained with propidium iodide to visualize nuclei. Images were taken using a 20× objective.
# For immunofluorescent analysis of collagen, antibodies against collagen I (Southern Biotech, 1310-01) or collagen III (Abcam, ab7778) were used. Fixed tissue sections were incubated with collagen I or collagen III antibodies for 60 min at room temperature. After washing, secondary antibodies (anti-rabbit AF488 (711-547-003) or anti-goat AF488 (705-545-147), Jackson ImmunoResearch) were incubated on the tissues for 30 min at room temperature and nuclei visualized using propidium iodide. All images were taken using a 20× objective.
# [7] = 1 h pretreatment with Selegiline, then 10 mM probe 1 h
compound,measurement,setting,value
"Cc1c(CC(=O)NCCCCCC(=O)N[C@H](CC2CCCCC2)C(=O)N[C@H](CCCNC(=N)N)C(=O)N[C@H](CC2CCCCC2)C(=O)N[C@H](CCCNC(=N)N)C(=O)N[C@H](CC2CCCCC2)C(=O)N[C@H](CCCNC(=N)N)C(N)=O)c(=O)oc2c(F)c(O)c(F)cc12 [PB peptide, PB-Ahx-(ChaR)3—NH2, reference compound] ({X2-Ahx}-[dCha][dR][dCha][dR][dCha][dR]-NH2)",blue channel (405 nm) fluorescence of the probe,[1]; 1 h,fluorescence of the probe
same,colocalization with MitoTracker Red (405 nm and 561 nm overlay),[1]; 1 h,lack colocalization
"Cl.Cl.NCCCOc1ccc2c(c1)Oc1cc(OCCCN)ccc1C21OC(=O)c2ccccc21 [oLOX, 3′,6′-Bis(3-aminopropoxy)-3H-spiro[2-benzofuran-1,9′-xanthen]-3-one dihydrochloride, reference compound]","fluorescent signal (RFU) with skin homogenate, comparison with oLOX probe",[2],ns
1-Ahx-[ProProGly]7—NH2 [Compound 5],fluorescence in cross section of wound after in vivo administration,[3],fluorescence can be clearly visualized at the locations where the peptide-bound probe has been unmasked
"Cc1c(CC(=O)NCCCCCC(=O)N[C@H](CC2CCCCC2)C(=O)N[C@H](CCCNC(=N)N)C(=O)N[C@H](CC2CCCCC2)C(=O)N[C@H](CCCNC(=N)N)C(=O)N[C@H](CC2CCCCC2)C(=O)N[C@H](CCCNC(=N)N)C(N)=O)c(=O)oc2c(F)c(OCCCN)c(F)cc12 [peptide MAO probe, 1-Ahx-[Char]3—NH2] ({X1-Ahx}-[dCha][dR][dCha][dR][dCha][dR]-NH2)",blue channel (405 nm) fluorescence of the probe after MAO-B inhibitor,[1]; [7],very little fluorescence
same,colocalization with MitoTracker Red after MAO-B inhibitor,[1]; [7],only poor colocalization
"3-carboxy-6,8-difluoro-7-(4-((tert-butoxycarbonyl)amino)propoxy)-coumarin [Compound 1]",HPLC-MS trace of enzymatic conversion,"[2]; after 18 h incubation, UV detection at 254 nm",enzymatic conversion of Compound 1 to PB
1-Ahx-[ProHypGly]7—NH2 [Compound 4],fluorescence in cross section of wound after in vivo administration,[3],fluorescence can be clearly visualized at the locations where the peptide-bound probe has been unmasked
"3-carboxy-6,8-difluoro-7-(4-((tert-butoxycarbonyl)amino)propoxy)-coumarin [Compound 2]",absorbance maximum,[4],313 nm
same,fluorescent signal (RFU) with MAO-B compared to controls,[5],significant increase in fluorescent signal
same,"fluorescent signal (RFU) with skin homogenate, comparison with oLOX probe",[2],significant increase in fluorescent signal
same,fluorescent signal (RFU) with heat-denatured skin homogenate,"[2]; 100 μM, 1 h at 37° C., homogenate denatured 1.5 h at 90° C., Ex/Em 405/460 nm",significant decrease in fluorescent signal
same,fluorescent signal (RFU) with BAPN-inhibited skin homogenate,"[2]; 100 μM, 1 h at 37° C., homogenate pretreated with 100 μM BAPN for 2 h, Ex/Em 405/460 nm",significant decrease in fluorescent signal
same,"fluorescent signal (RFU) with lung, skin and liver homogenates","[2]; 100 μM, 18 h at 37° C., Ex/Em 405/460 nm",most significant increase in fluorescent signal was obtained for skin tissue type
1-[ProHypGly]3-AopProGly-[ProHypGly]3—NH2 [Compound 3],fluorescence in cross section of wound after in vivo administration,[3],fluorescence can be clearly visualized at the locations where the peptide-bound probe has been unmasked
same,localization of the probe in the wound,[3]; FIG. 31 (a) center,localizes the probe to collagen and elastin at the sites of LOX-mediated crosslinking
same,blue fluorescence of the probe in tumor section,[6],seen around the periphery of the tumor but is strongest near the side of attachment to the cartilage
